From patent publication US6593329B1, “Method for the treatment or prevention of coronary graft vasospasm” (Orion Corporation, priority 1999, dated 2003)
Where “and” joins values, the source holds several entries; their conditions need not be identical. Equal entries are not always repeated.

Tested on: human internal mammary artery (IMA) preparations
Experiment: Prevention of noradrenaline-induced vasospasm in isolated human internal mammary artery rings (isolated ring technique)
Format: cell-based
Conditions: for Prevention (%) of graft vasospasm (as % of maximal attainable spasm): IMA rings contracted with noradrenaline 1-10 μM, per patient and mean
Experimental: The effect of levosimendan to prevent vasospasm was investigated in human internal mammary artery (IMA) preparations from coronary by-pass surgery (8 patients) at three different levels of vascular tone using isolated ring technique. It is known that IMA may produce spasm during and after graft surgery especially at low perfusion pressure (at or lower than 50 mmHg).
Isometric stretch was applied perpendicular to the direction of blood flow for 45 min in organ bath containing oxygenated Krebs-Henseleit solution (37° C., pH 7.4). Magnitude of stretch (in mN) was converted into quasi-equivalent pressure values (23, 46 and 92 mmHg) according to the Laplace law. Isolated IMA rings were contracted with noradrenaline (1-10 μM), and at the steady state contraction, levosimendan (0.3 and 0.6 μM) was added cumulatively.

CC1CC(=O)NN=C1c1ccc(NN=C(C#N)C#N)cc1 (single isomer, unassigned; (-)) [Levosimendan, (−)-[[4-(1,4,5,6-tetrahydro-4-methyl-6-oxo-3-pyridazinyl)phenyl]hydrazono]propanedinitrile]
Prevention (%) of graft vasospasm (as % of maximal attainable spasm) (23 mmHg transmural pressure, levosimendan 0.3 μM): 46.1% and 27.2% and 37.5% and 60.0% and 46.7% and 40.0%
Prevention (%) of graft vasospasm (as % of maximal attainable spasm) (23 mmHg transmural pressure, levosimendan 0.6 μM): 76.9% and 125.0% and 45.5% and 62.5% and 0% and 110.0% and 113.3% and 113.0%
Prevention (%) of graft vasospasm (as % of maximal attainable spasm) (46 mmHg transmural pressure, levosimendan 0.3 μM): 28.6% and 75.0% and 13.8% and 8.3% and 57.1% and 16.2% and 37.8% and 17.3%
Prevention (%) of graft vasospasm (as % of maximal attainable spasm) (46 mmHg transmural pressure, levosimendan 0.6 μM): 85.7% and 100.0% and 41.4% and 27.1% and 114.3% and 21.6% and 78.4% and 57.7%
Prevention (%) of graft vasospasm (as % of maximal attainable spasm) (92 mmHg transmural pressure, levosimendan 0.3 μM): 16.6% and 0% and 3.9% and 8.2% and 9.6%
Prevention (%) of graft vasospasm (as % of maximal attainable spasm) (92 mmHg transmural pressure, levosimendan 0.6 μM): 61.6% and 22.0% and 14.9% and 34.7% and 26.7%
Prevention of graft vasospasm (result in words) (clinically relevant submicromolar concentrations, in particular at low perfusion pressure values): prevents graft vasospasm
